Data taken from patent publication US20240060146A1, “CHEMICAL SUBSTANCE EVALUATION SYSTEM USING MULTICOLOR LIGHT-EMITTING CELLS” (TOHOKU UNIVERSITY, priority 2020, published 2024).

Tests used:
Type in all cases: cell-based
2H4 cells [1] = test: IL-2 Luc LTT: evaluation of chemical substance in 2H4 cells; conditions: for IL-2 Luc LTT: 1 h chemical, then 25 nM PMA and 1 μM ionomycin 24 h, class from Min % suppression (nIL2LA) and Min Inh-GAPLA
Procedure: (§1) 2H4 cells were established from Jurkat cells according to the method described in PTL 1. First, for the preparation of 2H4 cells, a plasmid having SLG introduced downstream of the IL-2 promoter, a plasmid having SLR introduced downstream of the G3PDH promoter, and a plasmid having SLO introduced downstream of the INF-γ promoter were prepared as internal standards. These plasmids contained a resistance gene for hygromycin B, puromycin, and neomycin downstream of SLG, SLR, and SLO, respectively. The conditions for drug selection after transfection of the host Jurkat cells were as follows: in the primary selection, the cells were cultured for 1 week in the presence of a drug. In the secondary selection culture, the cells that survived in the primary selection culture were seeded in a 96-well plate at 1 cell/well or 200 cells/well, and cultured for 2 weeks under the same drug conditions. After the secondary selection culture, the cells were subjected to clone selection from the two points of signal intensity and signal induction by drug treatment. The G3PDH promoter SLR was first introduced to establish monochromatic stable cell line Jurkat: G3PDH-SLR #14D1 cells. These cells were used as the parent cell line to introduce the INF-γ promoter SLO, thereby establishing bichromatic stable cell line Jurkat: INFγ-SLO/G3PDH-SLR #2B12 cells. Subsequently, the obtained cells were used as a parent cell line to introduce the IL-2 promoter SLG, thereby establishing trichromatic stable cell line Jurkat IL-2-SLG/INFγ-SLO/G3PDH-SLR #2H4 cells.
The chemical substances listed in Table 1 were evaluated using 2H4 cells. 2H4 cells were seeded in a 96-well plate at 1×10^4/well and treated with each chemical substance for 1 hour, followed by incubating the cells with 25 nM PMA and 1 μM ionomycin for 24 hours. After 24 hours from the treatment with PMA and ionomycin, Tripluck Assay Reagent (manufactured by Toyobo Co., Ltd.) was added, and the amount of luminescence was measured with a Phelios microplate luminometer (manufactured by Atto Corporation). For control, 2H4 cells untreated with a chemical substance were also examined in the same manner. The amount of luminescence of SLG luciferase activity (IL2LA), SLR luciferase activity (GAPLA), and SLO luciferase activity (IFNLA) was measured, and IL-2LA and IFNLA were each normalized by GAPLA and determined to be nIL2LA and nIFNLA, respectively. Thereafter, for the concentration of each chemical substance, “% suppression” and “Inh-GAPLA” were determined according to the following formulas (1) and (2), and the chemical substances were evaluated by using their minimum value (Min % suppression, Min Inh-GAPLA).
In the evaluation, for control, PMA/ionomycin-treated 2H4 cells and PMA/ionomycin-untreated 2H4 cells were also measured for nIL2LA.
(§2) % suppression={(nIL2LA in 2H4 cells untreated with a chemical substance)−(nIL2LA in 2H4 cells treated with a chemical substance)}×100/(nIL2LA in 2H4 cells untreated with a chemical substance) ---(1) Inh-GAPLA=(GAPLA in 2H4 cells treated with a chemical substance)/(GAPLA in 2H4 cells untreated with a chemical substance) ---(2)

2H4 cells [2] = test: Evaluation of combination of IL-2 Luc LTT and IL-2 Luc assay; set-up: key: Positive (Pos): If the result is either LCT in the IL-2 Luc LTT or S in the IL-2 Luc assay, or both, the chemical substance is determined to be an immunosuppressive substance.; Negative (Neg): In the case other than the above, the chemical substance is determined to be a non-immunosuppressive substance; conditions: LCT in IL-2 Luc LTT or S in IL-2 Luc assay = Pos
Procedure: Positive (Pos): If the result is either LCT in the IL-2 Luc LTT or S in the IL-2 Luc assay, or both, the chemical substance is determined to be an immunosuppressive substance. Negative (Neg): In the case other than the above, the chemical substance is determined to be a non-immunosuppressive substance.

2H4 cells [3] = test: IL-2 Luc assay: evaluation of chemical substance in 2H4 cells; conditions: 1 h chemical, then PMA/ionomycin, luminescence after six hours, class from Min % suppression of nIL2LA
Procedure: as §1, §2
The chemical substances listed in Table 1 were evaluated using 2H4 cells. 2H4 cells were seeded in a 96-well plate at 2×10^5 cells/50 μl/well and treated with each chemical substance for 1 hour, followed by incubating the cells with 25 nM PMA and 1 µM ionomycin […]. After six hours from the treatment with PMA and ionomycin, Tripluc: Assay Reagent (manufactured by Toyobo Co., Ltd.) was added, and the amount of luminescence was measured with a Phelios microplate luminometer (manufactured by Atto Corporation). For control, 2H4 cells untreated with a chemical substance were also examined in the same manner. The amount of luminescence of SLG luciferase activity (IL2LA), SLR luciferase activity (GAPLA), and SLO luciferase activity (IFNLA) was measured, and IL-2LA and IFNLA were each normalized by GAPLA and determined to be nIL2LA and nIFNLA, respectively. Thereafter, for the concentration of each chemical substance, the value of suppression was calculated according to formula (1) above, and the chemical substances were evaluated by using their minimum value (Min suppression).

## Cc1ccc(=O)n(-c2ccccc2)c1 [Pirfenidone]
2H4 cells [1]
  IL-2 Luc LTT: I (−35<Min % suppression <35 and 0.7≤Min Inh-GAPLA: Inconclusive (denoted as “I”; possibly not measurable due to low water solubility))
2H4 cells [2]
  Evaluation of Combination: Pos
2H4 cells [3]
  IL-2 Luc Assay: S (Min %; suppression ≥35: Suppression (denoted as “S”; determined to have immunosuppressive action))

## CC[C@H](C)C(=O)O[C@H]1C[C@H](O)C=C2C=C[C@H](C)[C@H](CC[C@@H](O)C[C@@H](O)CC(=O)O)[C@H]21 [Pravastatin]
2H4 cells [1]
  IL-2 Luc LTT: I (−35<Min % suppression <35 and 0.7≤Min Inh-GAPLA: Inconclusive (denoted as “I”; possibly not measurable due to low water solubility))
2H4 cells [2]
  Evaluation of Combination: Neg
2H4 cells [3]
  IL-2 Luc Assay: N (−35<Min % suppression <35: No Effect (denoted as “N”; determined to not affect immunity))

## CO[C@H]1C[C@@H]2CC[C@@H](C)[C@@](O)(O2)C(=O)C(=O)N2CCCC[C@H]2C(=O)O[C@H]([C@H](C)C[C@@H]2CC[C@@H](O)[C@H](OC)C2)CC(=O)[C@H](C)/C=C(\C)[C@@H](O)[C@@H](OC)C(=O)[C@H](C)C[C@H](C)/C=C/C=C/C=C/1C [Rapamycin (RPM), Rapamycin]
2H4 cells [1]
  determination in IL-2 Luc LTT (in words): inhibit cell growth and/or metabolic activity
  IL-2 Luc LTT: LCT (Min % suppression ≤−35 and Min Inh-GAPLA <0.7: Leukocyte toxic (denoted as “LCT”; determined to have cell growth inhibition action and/or metabolic activity inhibition action))
2H4 cells [2]
  Evaluation of Combination: Pos
2H4 cells [3]
  IL-2 Luc Assay: N (−35<Min % suppression <35: No Effect (denoted as “N”; determined to not affect immunity))

## Cc1cn([C@H]2C[C@H](N=[N+]=[N-])[C@@H](CO)O2)c(=O)[nH]c1=O [Retrovir]
2H4 cells [1]
  IL-2 Luc LTT: NLCT
2H4 cells [2]
  Evaluation of Combination: Pos
2H4 cells [3]
  IL-2 Luc Assay: A (Min suppression ≤−35: Augmentation (denoted as “A”; determined to have immunoaugmenting action))

## C=CC[C@@H]1/C=C(\C)C[C@H](C)C[C@H](OC)[C@H]2O[C@@](O)(C(=O)C(=O)N3CCCC[C@H]3C(=O)O[C@H](/C(C)=C/[C@@H]3CC[C@@H](O)[C@H](OC)C3)[C@H](C)[C@@H](O)CC1=O)[C@H](C)C[C@@H]2OC [Tacrolimus (Tac), Tacrolimus]
2H4 cells [1]
  IL-2 Luc LTT: NLCT
2H4 cells [2]
  Evaluation of Combination: Pos
2H4 cells [3]
  IL-2 Luc Assay: S (Min %; suppression ≥35: Suppression (denoted as “S”; determined to have immunosuppressive action))

## COc1cc([C@@H]2c3cc4c(cc3[C@@H](O[C@@H]3O[C@@H]5CO[C@@H](c6cccs6)O[C@H]5[C@H](O)[C@H]3O)[C@H]3COC(=O)[C@H]23)OCO4)cc(OC)c1O [Teniposide]
2H4 cells [1]
  IL-2 Luc LTT: LCT (Min % suppression ≤−35 and Min Inh-GAPLA <0.7: Leukocyte toxic (denoted as “LCT”; determined to have cell growth inhibition action and/or metabolic activity inhibition action))
2H4 cells [2]
  Evaluation of Combination: Pos
2H4 cells [3]
  IL-2 Luc Assay: N (−35<Min % suppression <35: No Effect (denoted as “N”; determined to not affect immunity))

## CN(C/C=C/C#CC(C)(C)C)Cc1cccc2ccccc12 [Terbinafine]
2H4 cells [1]
  IL-2 Luc LTT: NLCT
2H4 cells [2]
  Evaluation of Combination: Pos
2H4 cells [3]
  IL-2 Luc Assay: N (−35<Min % suppression <35: No Effect (denoted as “N”; determined to not affect immunity))

## CC(=O)CC(c1ccccc1)c1c(O)c2ccccc2oc1=O (stereo not shown) [Warfarin]
2H4 cells [1]
  IL-2 Luc LTT: NLCT
2H4 cells [2]
  Evaluation of Combination: Neg
2H4 cells [3]
  IL-2 Luc Assay: N (−35<Min % suppression <35: No Effect (denoted as “N”; determined to not affect immunity))

## Bleomycin sulfate
2H4 cells [1]
  IL-2 Luc LTT: LCT (Min % suppression ≤−35 and Min Inh-GAPLA <0.7: Leukocyte toxic (denoted as “LCT”; determined to have cell growth inhibition action and/or metabolic activity inhibition action))
2H4 cells [2]
  Evaluation of Combination: Pos
2H4 cells [3]
  IL-2 Luc Assay: N (−35<Min % suppression <35: No Effect (denoted as “N”; determined to not affect immunity))
